Assay results published in patent publication US10669284B2, “Fused thiazolopyrimidine derivatives as MNKS inhibitors” (LIFEARC, priority 2015, dated 2020).
Like-named read-outs stand apart in the source and are kept apart here.

Key:
STK10 = STK10 (Homo sapiens, UniProt O94804); test: Kinase selectivity screen STK10; settings: read-out: % inhibition of STK10
PIP5K1C = PIP5K1C (Homo sapiens, UniProt O60331); test: Kinase selectivity screen PIP5K1C; settings: read-out: % inhibition of PIP5K1C
CAMK2B = CAMK2B (Homo sapiens, UniProt Q13554); test: Kinase selectivity screen CAMK2B; settings: read-out: % inhibition of CAMK2B
CDK9/CCNT1 = CDK9/CCNT1 (Homo sapiens, UniProt P50750); test: Kinase selectivity screen CDK9/CCNT1; settings: read-out: % inhibition of CDK9/CCNT1
ABL1 = ABL1 (Homo sapiens, UniProt P00519); test: Kinase selectivity screen ABL1; settings: read-out: % inhibition of ABL1
PAK7 = PAK7 (Homo sapiens, UniProt Q9P286); test: Kinase selectivity screen PAK7; settings: read-out: % inhibition of PAK7
Full-length human MNK1 = target: T1, Full-length human MNK1 (Homo sapiens, UniProt Q9BUB5, T385D); test: MNK1 biochemical IC50 assay (Caliper Mobility Shift Assay)
T1 construct: GST (N); purchased Carna Biosciences 02-145; host or cells: baculovirus expression system

ROCK1 = ROCK1 (Homo sapiens, UniProt Q13464); test: Kinase selectivity screen ROCK1; settings: read-out: % inhibition of ROCK1
TYRO3 = target: T2, TYRO3 (Homo sapiens, UniProt Q06418); test: Kinase selectivity screen TYRO3; settings: read-out: % inhibition of TYRO3
T2 sequence (Q06418 41-890): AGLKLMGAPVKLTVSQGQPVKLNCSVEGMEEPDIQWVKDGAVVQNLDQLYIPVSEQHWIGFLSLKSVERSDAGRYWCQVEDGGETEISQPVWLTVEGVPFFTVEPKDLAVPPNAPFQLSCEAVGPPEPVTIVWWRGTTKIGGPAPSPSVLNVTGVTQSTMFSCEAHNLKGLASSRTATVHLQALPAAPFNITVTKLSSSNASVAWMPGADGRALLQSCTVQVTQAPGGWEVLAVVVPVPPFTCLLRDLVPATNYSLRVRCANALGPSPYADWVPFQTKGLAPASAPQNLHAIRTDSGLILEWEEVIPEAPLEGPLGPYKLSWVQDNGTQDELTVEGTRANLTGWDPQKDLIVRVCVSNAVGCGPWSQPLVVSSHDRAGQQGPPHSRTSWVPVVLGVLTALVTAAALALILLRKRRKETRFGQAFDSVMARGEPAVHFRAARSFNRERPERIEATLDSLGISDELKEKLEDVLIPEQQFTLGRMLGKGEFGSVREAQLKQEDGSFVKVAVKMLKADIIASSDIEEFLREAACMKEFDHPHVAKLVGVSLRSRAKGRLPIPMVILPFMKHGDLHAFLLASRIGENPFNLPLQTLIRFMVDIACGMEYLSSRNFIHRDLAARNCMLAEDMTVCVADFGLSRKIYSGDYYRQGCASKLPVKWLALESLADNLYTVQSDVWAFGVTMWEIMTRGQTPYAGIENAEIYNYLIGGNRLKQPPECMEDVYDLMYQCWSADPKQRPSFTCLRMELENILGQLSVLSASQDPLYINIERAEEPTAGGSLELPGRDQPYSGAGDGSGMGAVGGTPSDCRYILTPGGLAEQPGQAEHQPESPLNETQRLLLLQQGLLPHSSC

ABL2 = ABL2 (Homo sapiens, UniProt P42684); test: Kinase selectivity screen ABL2; settings: read-out: % inhibition of ABL2
BLK = BLK (Homo sapiens, UniProt P51451); test: Kinase selectivity screen BLK; settings: read-out: % inhibition of BLK
CaMK1 = CaMK1 (Homo sapiens, UniProt Q14012); test: Kinase selectivity screen CaMK1; settings: read-out: % inhibition of CaMK1
EGFR = EGFR (Homo sapiens, UniProt P00533); test: Kinase selectivity screen EGFR; settings: read-out: % inhibition of EGFR
FER = FER (Homo sapiens, UniProt P16591); test: Kinase selectivity screen FER; settings: read-out: % inhibition of FER
FES = FES (Homo sapiens, UniProt P07332); test: Kinase selectivity screen FES; settings: read-out: % inhibition of FES
[1] = read-out: P(IC50) MNK1 (converted)

STK10, sequence (O94804 whole entry, species assumed): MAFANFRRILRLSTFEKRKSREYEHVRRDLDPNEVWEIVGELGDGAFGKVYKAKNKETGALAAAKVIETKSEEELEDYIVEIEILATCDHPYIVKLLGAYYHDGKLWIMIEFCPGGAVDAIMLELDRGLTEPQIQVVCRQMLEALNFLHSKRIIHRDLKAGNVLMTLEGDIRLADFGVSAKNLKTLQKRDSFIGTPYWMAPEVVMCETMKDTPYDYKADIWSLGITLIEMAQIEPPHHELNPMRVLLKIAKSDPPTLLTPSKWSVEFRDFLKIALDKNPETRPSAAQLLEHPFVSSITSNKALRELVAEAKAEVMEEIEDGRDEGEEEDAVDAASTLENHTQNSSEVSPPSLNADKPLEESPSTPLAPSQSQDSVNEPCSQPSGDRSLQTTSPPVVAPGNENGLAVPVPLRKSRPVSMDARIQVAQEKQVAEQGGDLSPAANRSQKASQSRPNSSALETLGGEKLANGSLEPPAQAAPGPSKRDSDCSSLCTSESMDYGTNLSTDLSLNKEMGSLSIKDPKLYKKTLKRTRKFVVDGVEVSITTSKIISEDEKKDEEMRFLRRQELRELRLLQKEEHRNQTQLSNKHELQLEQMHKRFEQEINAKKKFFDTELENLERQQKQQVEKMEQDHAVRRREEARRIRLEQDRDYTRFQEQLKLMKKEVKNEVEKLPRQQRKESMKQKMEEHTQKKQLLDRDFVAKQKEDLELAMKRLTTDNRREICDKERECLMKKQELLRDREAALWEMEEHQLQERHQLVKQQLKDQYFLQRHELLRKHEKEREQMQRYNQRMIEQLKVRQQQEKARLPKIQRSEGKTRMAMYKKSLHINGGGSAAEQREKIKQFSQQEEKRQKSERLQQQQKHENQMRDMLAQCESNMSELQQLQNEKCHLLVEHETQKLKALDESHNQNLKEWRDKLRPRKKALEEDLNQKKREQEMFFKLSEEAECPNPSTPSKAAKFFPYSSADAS
PIP5K1C, sequence (O60331 whole entry, species assumed): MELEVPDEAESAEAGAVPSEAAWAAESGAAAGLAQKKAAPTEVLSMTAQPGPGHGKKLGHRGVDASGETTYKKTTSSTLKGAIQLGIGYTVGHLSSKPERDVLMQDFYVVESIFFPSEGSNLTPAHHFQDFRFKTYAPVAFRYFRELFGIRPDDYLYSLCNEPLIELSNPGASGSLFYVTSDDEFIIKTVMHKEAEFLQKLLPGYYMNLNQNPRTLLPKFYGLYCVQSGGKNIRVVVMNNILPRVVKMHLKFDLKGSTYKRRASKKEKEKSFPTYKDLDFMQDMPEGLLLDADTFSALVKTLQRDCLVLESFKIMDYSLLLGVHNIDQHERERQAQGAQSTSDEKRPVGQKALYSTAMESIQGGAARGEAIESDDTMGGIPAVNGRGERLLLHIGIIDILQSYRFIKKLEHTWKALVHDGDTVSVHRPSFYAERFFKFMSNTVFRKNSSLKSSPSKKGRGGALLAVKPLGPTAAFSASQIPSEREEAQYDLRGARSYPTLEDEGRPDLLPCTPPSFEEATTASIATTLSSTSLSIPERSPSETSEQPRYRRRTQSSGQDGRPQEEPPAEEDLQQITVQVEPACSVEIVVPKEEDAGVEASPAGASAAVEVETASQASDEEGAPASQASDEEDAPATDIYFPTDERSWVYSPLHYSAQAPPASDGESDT
EGFR, sequence (P00533 25-1210): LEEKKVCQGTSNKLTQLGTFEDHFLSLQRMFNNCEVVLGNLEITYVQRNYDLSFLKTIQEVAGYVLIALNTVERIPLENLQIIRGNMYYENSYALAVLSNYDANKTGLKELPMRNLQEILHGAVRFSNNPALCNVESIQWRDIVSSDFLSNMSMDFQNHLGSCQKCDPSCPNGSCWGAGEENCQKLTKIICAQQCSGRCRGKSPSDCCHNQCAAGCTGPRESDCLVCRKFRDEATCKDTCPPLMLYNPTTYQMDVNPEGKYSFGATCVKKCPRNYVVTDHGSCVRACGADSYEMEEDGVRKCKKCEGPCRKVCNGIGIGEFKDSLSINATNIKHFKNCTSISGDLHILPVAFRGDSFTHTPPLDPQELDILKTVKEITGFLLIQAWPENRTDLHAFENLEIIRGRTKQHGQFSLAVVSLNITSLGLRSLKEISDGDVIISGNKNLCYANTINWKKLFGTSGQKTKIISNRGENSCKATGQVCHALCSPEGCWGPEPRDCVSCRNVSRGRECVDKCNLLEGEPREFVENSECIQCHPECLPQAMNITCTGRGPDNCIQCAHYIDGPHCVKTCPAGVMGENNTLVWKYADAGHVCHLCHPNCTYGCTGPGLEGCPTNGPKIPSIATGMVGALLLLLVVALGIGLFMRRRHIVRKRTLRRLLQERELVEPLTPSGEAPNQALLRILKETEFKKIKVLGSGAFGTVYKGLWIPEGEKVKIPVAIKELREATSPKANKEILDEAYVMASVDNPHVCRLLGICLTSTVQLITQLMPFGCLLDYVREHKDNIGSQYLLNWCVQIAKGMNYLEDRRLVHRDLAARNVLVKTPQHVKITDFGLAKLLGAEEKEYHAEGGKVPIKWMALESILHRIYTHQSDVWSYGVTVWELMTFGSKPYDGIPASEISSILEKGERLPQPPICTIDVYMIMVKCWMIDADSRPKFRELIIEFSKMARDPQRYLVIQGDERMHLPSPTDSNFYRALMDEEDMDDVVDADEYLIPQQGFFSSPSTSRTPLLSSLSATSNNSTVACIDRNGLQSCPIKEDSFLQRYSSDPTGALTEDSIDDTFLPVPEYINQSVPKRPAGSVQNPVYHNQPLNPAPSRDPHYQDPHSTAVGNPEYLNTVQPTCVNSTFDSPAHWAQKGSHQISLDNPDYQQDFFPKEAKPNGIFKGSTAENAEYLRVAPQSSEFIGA
T1 sequence (Q9BUB5 1-424 isoform Q9BUB5-2 T344D): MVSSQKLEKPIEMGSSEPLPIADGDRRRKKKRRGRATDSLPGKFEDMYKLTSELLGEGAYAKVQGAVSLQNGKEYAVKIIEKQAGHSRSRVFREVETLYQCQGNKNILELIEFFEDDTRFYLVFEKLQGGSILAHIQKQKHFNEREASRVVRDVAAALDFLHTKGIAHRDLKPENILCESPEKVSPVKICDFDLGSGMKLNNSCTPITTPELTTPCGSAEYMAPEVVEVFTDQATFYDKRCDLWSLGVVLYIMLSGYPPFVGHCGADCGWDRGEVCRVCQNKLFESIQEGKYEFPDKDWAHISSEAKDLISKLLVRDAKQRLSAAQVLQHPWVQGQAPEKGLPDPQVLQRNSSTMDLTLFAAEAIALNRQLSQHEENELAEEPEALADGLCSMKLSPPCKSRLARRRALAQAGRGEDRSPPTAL
FER, sequence (P16591 whole entry, species assumed): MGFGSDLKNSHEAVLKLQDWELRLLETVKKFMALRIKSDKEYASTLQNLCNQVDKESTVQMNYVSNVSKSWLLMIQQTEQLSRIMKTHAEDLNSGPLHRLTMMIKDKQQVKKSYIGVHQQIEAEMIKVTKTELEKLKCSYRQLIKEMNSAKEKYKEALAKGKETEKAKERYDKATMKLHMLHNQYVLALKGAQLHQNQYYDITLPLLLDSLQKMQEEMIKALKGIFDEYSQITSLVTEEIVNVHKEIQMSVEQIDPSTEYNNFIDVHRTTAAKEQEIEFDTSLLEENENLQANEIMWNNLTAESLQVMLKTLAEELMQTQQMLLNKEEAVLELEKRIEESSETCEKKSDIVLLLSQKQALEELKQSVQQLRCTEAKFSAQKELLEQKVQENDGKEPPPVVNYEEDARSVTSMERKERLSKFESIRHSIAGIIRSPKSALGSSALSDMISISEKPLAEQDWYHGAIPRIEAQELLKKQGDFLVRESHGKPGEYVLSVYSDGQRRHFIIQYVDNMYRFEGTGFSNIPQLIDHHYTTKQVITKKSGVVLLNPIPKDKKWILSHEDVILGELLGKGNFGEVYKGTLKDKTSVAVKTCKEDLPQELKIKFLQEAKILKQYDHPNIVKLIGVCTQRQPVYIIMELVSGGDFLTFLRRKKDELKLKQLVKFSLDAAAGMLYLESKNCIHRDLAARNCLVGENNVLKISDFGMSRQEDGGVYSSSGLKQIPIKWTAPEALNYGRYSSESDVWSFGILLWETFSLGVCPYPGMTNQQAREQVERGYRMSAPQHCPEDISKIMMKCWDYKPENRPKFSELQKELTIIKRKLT
FES, sequence (P07332 whole entry, species assumed): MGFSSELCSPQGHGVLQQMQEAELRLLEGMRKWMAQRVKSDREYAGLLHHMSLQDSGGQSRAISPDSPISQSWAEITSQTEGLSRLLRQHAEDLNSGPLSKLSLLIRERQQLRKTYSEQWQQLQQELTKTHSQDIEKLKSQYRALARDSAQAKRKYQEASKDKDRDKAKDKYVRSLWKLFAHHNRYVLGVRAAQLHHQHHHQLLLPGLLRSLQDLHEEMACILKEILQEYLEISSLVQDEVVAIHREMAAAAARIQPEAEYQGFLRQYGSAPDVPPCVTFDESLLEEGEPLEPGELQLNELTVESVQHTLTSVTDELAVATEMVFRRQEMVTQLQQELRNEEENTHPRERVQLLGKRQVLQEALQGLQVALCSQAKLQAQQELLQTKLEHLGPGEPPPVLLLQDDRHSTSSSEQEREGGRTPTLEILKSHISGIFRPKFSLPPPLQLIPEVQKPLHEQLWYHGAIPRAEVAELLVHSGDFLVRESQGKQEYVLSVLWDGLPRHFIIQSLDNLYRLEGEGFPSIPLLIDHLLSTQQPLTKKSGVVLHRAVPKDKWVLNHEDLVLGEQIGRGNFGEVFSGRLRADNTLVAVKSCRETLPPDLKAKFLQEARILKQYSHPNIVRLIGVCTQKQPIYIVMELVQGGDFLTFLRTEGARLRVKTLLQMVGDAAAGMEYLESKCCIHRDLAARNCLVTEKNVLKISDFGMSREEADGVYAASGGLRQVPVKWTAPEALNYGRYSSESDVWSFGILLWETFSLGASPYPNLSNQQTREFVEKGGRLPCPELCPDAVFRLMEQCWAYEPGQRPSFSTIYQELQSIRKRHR

| Structure (SMILES) | inhibition at 1 µM (STK10) [%] | inhibition at 1 µM (PIP5K1C) [%] | inhibition at 1 µM (CAMK2B) [%] | inhibition at 1 µM (CDK9/CCNT1) [%] | inhibition at 1 µM (ABL1) [%] | inhibition at 1 µM (PAK7) [%] | IC50 (Full-length human MNK1; [1]) [nM] | inhibition at 1 µM (ROCK1) [%] | inhibition at 1 µM (TYRO3) [%] | inhibition at 1 µM (ABL2) [%] | inhibition at 1 µM (BLK) [%] | inhibition at 1 µM (CaMK1) [%] | inhibition at 1 µM (EGFR) [%] | inhibition at 1 µM (FER) [%] | inhibition at 1 µM (FES) [%] | IC50 (Full-length human MNK1) [nM] |
| --- | --- | --- | --- | --- | --- | --- | --- | --- | --- | --- | --- | --- | --- | --- | --- | --- |
| CN(C)CCCNC(=O)c1nc2c(N3CCc4cc(F)ccc43)ncnc2s1 [Example 64, N-[3-(dimethylamino)propyl]-7-(5-fluoroindolin-1-yl)thiazolo[5,4-d]pyrimidine-2-carboxamide] | 81 | 3 | 57 | 4 | 4 | 0 | 2.51 | 4 | 0 | 0 | 1 | 18 | 5 | 0 | 1 | – |
| CC(C)Oc1cc(F)ccc1Nc1ncnc2sc(C(=O)NCC3CCNCC3)nc12 [Example 10, 7-(4-fluoro-2-isopropoxy-anilino)-N-(4-piperidylmethyl)thiazolo[5,4-d]pyrimidine-2-carboxamide] | 28 | 6 | 2 | 2 | 4 | 1 | – | 0 | 0 | 0 | 18 | 11 | 0 | 4 | 13 | 50.1 |
| O=C(NCC1CCNCC1)c1nc2c(N3CCc4cc(F)ccc43)ncnc2s1 [Example 58, 7-(5-fluoroindolin-1-yl)-N-(4-piperidylmethyl)thiazolo[5,4-d]pyrimidine-2-carboxamide] | 71 | 6 | 17 | 11 | 6 | 0 | 5.01 | 0 | 20 | 0 | 0 | 11 | 0 | 0 | 16 | – |
